# Assay results as given in ChEMBL document CHEMBL3885861, “Open TG-GATES”.
# Organism: Rattus norvegicus
# Assay: Open TG-GATES - Regimen: Daily Repeat
# Format: toxicity, organism-based, Sprague-Dawley
# Design: regimen Daily Repeat, gender Male, age 6 weeks
# Conditions: in vivo, po, 0 mg/kg, route gavage, dose level Control; for APTT / Bas / Eos / Fbg / Hb / Ht / Lym / MCH / MCHC / MCV / Mono / Neu / PT / Plat / RBC / Ret / WBC: tissue Blood; for KIDNEY_L / KIDNEY_R / KIDNEY_TOTAL: tissue Kidney; for LIVER: tissue Liver; for A/G / ALP / ALT / AST / BUN / CRE / Ca / Cl / DBIL / GLC / IP / K / LDH / Na / PL / RALB / TBIL / TC / TG / TP / gamma-GTP: tissue Plasma
structure (smiles),measurement,setting,value
CN1C(=O)CCS(=O)(=O)C1c1ccc(Cl)cc1 (configuration not stated) [CHLORMEZANONE],TERMINAL_BW,"72 h, time 3 day",227.8 g
same,APTT,"72 h, time 3 day",15.7 s
same,Bas,"72 h, time 3 day",0%
same,Eos,"72 h, time 3 day",1%
same,Fbg,"72 h, time 3 day",283.6 mg/dL
same,Hb,"72 h, time 3 day",13.4 g/dL
same,Ht,"72 h, time 3 day",39.1%
same,Lym,"72 h, time 3 day",77.8%
same,MCH,"72 h, time 3 day",22.1 pg
same,MCHC,"72 h, time 3 day",34.4%
same,MCV,"72 h, time 3 day",64.3 fL
same,Mono,"72 h, time 3 day",3%
same,Neu,"72 h, time 3 day",17.8%
same,PT,"72 h, time 3 day",12 s
same,Plat,"72 h, time 3 day",114.7 x10_4/uL
same,RBC,"72 h, time 3 day",608.2 x10_4/ul
same,Ret,"72 h, time 3 day",6.7%
same,WBC,"72 h, time 3 day",81.1 x10_2/uL
same,KIDNEY_L,"72 h, time 3 day",0.9 g
same,KIDNEY_R,"72 h, time 3 day",0.9 g
same,KIDNEY_TOTAL,"72 h, time 3 day",1.8 g
same,LIVER,"72 h, time 3 day",10.6 g
same,A/G,"72 h, time 3 day",0.9
same,ALP,"72 h, time 3 day",1545.4 IU/L
same,ALT,"72 h, time 3 day",48.4 IU/L
same,AST,"72 h, time 3 day",68.2 IU/L
same,BUN,"72 h, time 3 day",14.6 mg/dL
same,CRE,"72 h, time 3 day",0.2 mg/dL
same,Ca,"72 h, time 3 day",10.9 mg/dL
same,Cl,"72 h, time 3 day",108.4 meq/L
same,DBIL,"72 h, time 3 day",0.01 mg/dL
same,GLC,"72 h, time 3 day",193.6 mg/dL
same,IP,"72 h, time 3 day",6.7 mg/dL
same,K,"72 h, time 3 day",4.2 meq/L
same,LDH,"72 h, time 3 day",63.4 IU/L
same,Na,"72 h, time 3 day",143.4 meq/L
same,PL,"72 h, time 3 day",148.4 mg/dL
same,RALB,"72 h, time 3 day",2.7 g/dL
same,TBIL,"72 h, time 3 day",0.026 mg/dL
same,TC,"72 h, time 3 day",88.8 mg/dL
same,TG,"72 h, time 3 day",90 mg/dL
same,TP,"72 h, time 3 day",5.8 g/dL
same,gamma-GTP,"72 h, time 3 day",1.2 IU/L
same,TERMINAL_BW,"[…], time 7 day",269.2 g
same,TERMINAL_BW,"[…], time 14 day",301.6 g
same,TERMINAL_BW,"[…], time 28 day",393 g
same,APTT,"[…], time 7 day",17.6 s
same,Bas,"[…], time 7 day",0%
same,Eos,"[…], time 7 day",0.8%
same,Fbg,"[…], time 7 day",294.6 mg/dL
same,Hb,"[…], time 7 day",13.9 g/dL
same,Ht,"[…], time 7 day",41%
same,Lym,"[…], time 7 day",79.4%
same,MCH,"[…], time 7 day",22.1 pg
same,MCHC,"[…], time 7 day",33.9%
same,MCV,"[…], time 7 day",65.3 fL
same,Mono,"[…], time 7 day",2.4%
same,Neu,"[…], time 7 day",16.6%
same,PT,"[…], time 7 day",11.9 s
same,Plat,"[…], time 7 day",113.1 x10_4/uL
same,RBC,"[…], time 7 day",627.6 x10_4/ul
same,Ret,"[…], time 7 day",6.5%
same,WBC,"[…], time 7 day",91.2 x10_2/uL
same,APTT,"[…], time 14 day",16.9 s
same,Bas,"[…], time 14 day",0%
same,Eos,"[…], time 14 day",1%
same,Fbg,"[…], time 14 day",306.8 mg/dL
same,Hb,"[…], time 14 day",14.5 g/dL
same,Ht,"[…], time 14 day",41.2%
same,Lym,"[…], time 14 day",76.2%
same,MCH,"[…], time 14 day",20.7 pg
same,MCHC,"[…], time 14 day",35.3%
same,MCV,"[…], time 14 day",58.8 fL
same,Mono,"[…], time 14 day",2%
same,Neu,"[…], time 14 day",20.4%
same,PT,"[…], time 14 day",11.8 s
same,Plat,"[…], time 14 day",123 x10_4/uL
same,RBC,"[…], time 14 day",701 x10_4/ul
same,Ret,"[…], time 14 day",3.5%
same,WBC,"[…], time 14 day",70.8 x10_2/uL
same,APTT,"[…], time 28 day",17.9 s
same,Bas,"[…], time 28 day",0%
same,Eos,"[…], time 28 day",1%
same,Fbg,"[…], time 28 day",293.6 mg/dL
same,Hb,"[…], time 28 day",15 g/dL
same,Ht,"[…], time 28 day",42.2%
same,Lym,"[…], time 28 day",75.4%
same,MCH,"[…], time 28 day",20.2 pg
same,MCHC,"[…], time 28 day",35.5%
same,MCV,"[…], time 28 day",56.8 fL
same,Mono,"[…], time 28 day",2.4%
same,Neu,"[…], time 28 day",20.6%
same,PT,"[…], time 28 day",11.8 s
same,Plat,"[…], time 28 day",99.4 x10_4/uL
same,RBC,"[…], time 28 day",744.8 x10_4/ul
same,Ret,"[…], time 28 day",2.6%
same,WBC,"[…], time 28 day",82.8 x10_2/uL
same,KIDNEY_L,"[…], time 7 day",1 g
same,KIDNEY_R,"[…], time 7 day",1 g
same,KIDNEY_TOTAL,"[…], time 7 day",2.1 g
same,KIDNEY_L,"[…], time 14 day",1.2 g
same,KIDNEY_R,"[…], time 14 day",1.1 g
same,KIDNEY_TOTAL,"[…], time 14 day",2.3 g
same,KIDNEY_L,"[…], time 28 day",1.4 g
same,KIDNEY_R,"[…], time 28 day",1.3 g
same,KIDNEY_TOTAL,"[…], time 28 day",2.7 g
same,LIVER,"[…], time 7 day",13 g
same,LIVER,"[…], time 14 day",12.6 g
same,LIVER,"[…], time 28 day",16 g
same,A/G,"[…], time 7 day",0.9
same,ALP,"[…], time 7 day",1745 IU/L
same,ALT,"[…], time 7 day",44 IU/L
same,AST,"[…], time 7 day",68.2 IU/L
same,BUN,"[…], time 7 day",16.6 mg/dL
same,CRE,"[…], time 7 day",0.2 mg/dL
same,Ca,"[…], time 7 day",11.6 mg/dL
same,Cl,"[…], time 7 day",107.8 meq/L
same,DBIL,"[…], time 7 day",0.016 mg/dL
same,GLC,"[…], time 7 day",181.4 mg/dL
same,IP,"[…], time 7 day",6.9 mg/dL
same,K,"[…], time 7 day",4.3 meq/L
same,LDH,"[…], time 7 day",89.8 IU/L
same,Na,"[…], time 7 day",144 meq/L
same,PL,"[…], time 7 day",152 mg/dL
same,RALB,"[…], time 7 day",2.8 g/dL
same,TBIL,"[…], time 7 day",0.034 mg/dL
same,TC,"[…], time 7 day",82.6 mg/dL
same,TG,"[…], time 7 day",121.6 mg/dL
same,TP,"[…], time 7 day",6 g/dL
same,gamma-GTP,"[…], time 7 day",1 IU/L
same,A/G,"[…], time 14 day",0.8
same,ALP,"[…], time 14 day",1484.4 IU/L
same,ALT,"[…], time 14 day",48 IU/L
same,AST,"[…], time 14 day",63.8 IU/L
same,BUN,"[…], time 14 day",14.4 mg/dL
same,CRE,"[…], time 14 day",0.2 mg/dL
same,Ca,"[…], time 14 day",11.2 mg/dL
same,Cl,"[…], time 14 day",107.8 meq/L
same,DBIL,"[…], time 14 day",0.008 mg/dL
same,GLC,"[…], time 14 day",191.6 mg/dL
same,IP,"[…], time 14 day",6.3 mg/dL
same,K,"[…], time 14 day",4 meq/L
same,LDH,"[…], time 14 day",47 IU/L
same,Na,"[…], time 14 day",143.6 meq/L
same,PL,"[…], time 14 day",136.4 mg/dL
same,RALB,"[…], time 14 day",2.8 g/dL
same,TBIL,"[…], time 14 day",0.064 mg/dL
same,TC,"[…], time 14 day",70.8 mg/dL
same,TG,"[…], time 14 day",74.8 mg/dL
same,TP,"[…], time 14 day",6.1 g/dL
same,gamma-GTP,"[…], time 14 day",1 IU/L
same,A/G,"[…], time 28 day",0.8
same,ALP,"[…], time 28 day",1035.2 IU/L
same,ALT,"[…], time 28 day",45.6 IU/L
same,AST,"[…], time 28 day",62.8 IU/L
same,BUN,"[…], time 28 day",14 mg/dL
same,CRE,"[…], time 28 day",0.3 mg/dL
same,Ca,"[…], time 28 day",10.8 mg/dL
same,Cl,"[…], time 28 day",106.2 meq/L
same,DBIL,"[…], time 28 day",0.006 mg/dL
same,GLC,"[…], time 28 day",183.2 mg/dL
same,IP,"[…], time 28 day",6 mg/dL
same,K,"[…], time 28 day",4 meq/L
same,LDH,"[…], time 28 day",57 IU/L
same,Na,"[…], time 28 day",142.4 meq/L
same,PL,"[…], time 28 day",143.6 mg/dL
same,RALB,"[…], time 28 day",2.8 g/dL
same,TBIL,"[…], time 28 day",0.062 mg/dL
same,TC,"[…], time 28 day",74.8 mg/dL
same,TG,"[…], time 28 day",88 mg/dL
same,TP,"[…], time 28 day",6.3 g/dL
same,gamma-GTP,"[…], time 28 day",1 IU/L
